The values below come from patent US9464064B2, “HCV helicase inhibitors and methods of use thereof” (University of Kansas, priority 2011, dated 2016).

In the assay the target is T1, HCV NS3 helicase NS3h_1b(con1) (Hepatitis C virus genotype 1b, UniProt Q9WMX2).
T1 construct: truncated C-terminally His-tagged NS3 proteins lacking the N-terminal protease, called NS3h; His-tag (C); made in house
Kind of assay: MBHA screen of NCI mechanistic set library at 20 μM (percent inhibition, compound interference). The format is biochemical. To be noted: compounds at 20 μM; for Inh. (%) (Inhibition): calculated from Equation 1. Summed up:
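Molecular beacon-based DNA unwinding assay; compounds screened at 20 μM in triplicate, with DMSO-only negative and 500 nM dT20 positive controls. Fluorescence (ex 643/em 670 nm) was read before and 30 min after adding ATP to 1 mM. Percent inhibition came from the change relative to DMSO controls; interference from pre-ATP fluorescence versus DMSO controls.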

[1] abbreviates: assay interference calculated with Equation 2 (fluorescence vs DMSO-only controls before ATP).
Setting [2] is: MBHA with DNA substrate, assay interference calculated with Equation 2.

T1 sequence (Q9WMX2 1192-1657): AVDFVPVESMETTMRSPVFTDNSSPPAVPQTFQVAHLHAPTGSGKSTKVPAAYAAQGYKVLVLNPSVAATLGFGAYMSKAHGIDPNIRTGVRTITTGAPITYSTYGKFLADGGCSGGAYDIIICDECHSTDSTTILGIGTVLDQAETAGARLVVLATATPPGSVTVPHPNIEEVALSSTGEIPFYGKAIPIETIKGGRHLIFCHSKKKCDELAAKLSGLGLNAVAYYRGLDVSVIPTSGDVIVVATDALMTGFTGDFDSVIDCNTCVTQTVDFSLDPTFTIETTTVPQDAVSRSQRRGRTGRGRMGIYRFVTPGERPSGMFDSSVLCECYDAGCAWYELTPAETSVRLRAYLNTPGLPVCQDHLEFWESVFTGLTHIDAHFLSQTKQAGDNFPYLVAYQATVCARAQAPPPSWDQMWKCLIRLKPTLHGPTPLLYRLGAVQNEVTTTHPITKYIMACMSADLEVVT

For `Cc1cc(=O)[nH]c(NN2C(Cl)C(=O)C2c2c(O)ccc3ccccc23)n1` (stereo not drawn) [Compound 653016], the “Inh. (%) (Inhibition)” value (MBHA with a DNA substrate) is listed as −40.6%. Further, under setting [1], the “Int.* (Ratio) (Interference)” value is given as 1.02 Ratio.

For `C[CH2][Ge]([CH2]C)([CH2]C)[O]C(=O)CCC(=O)[O][Ge]([CH2]C)([CH2]C)[CH2]C` [Compound 653558], the “Inh. (%) (Inhibition)” value (MBHA with a DNA substrate) is −3.1%. For the same compound, the “Int.* (Ratio) (Interference)” value under setting [1] was 0.98 Ratio.

As to `Cc1cc(NC(=O)NC(=O)c2ccccc2NC(=O)CN)ccc1Oc1ncc(Br)cn1.Cl` [Compound 654259], the “Int.* (Ratio) (Interference)” value under setting [2] was 0.98 Ratio. The “Inh. (%) (Inhibition)” value (MBHA with DNA substrate) is 1.1%.

Turning to `COC(=O)c1ccc(NCc2cc(O)ccc2O)cc1` [Compound 654705], the “Inh. (%) (Inhibition)” value (MBHA with a DNA substrate) was −6.0%. Also, the “Int.* (Ratio) (Interference)” value under setting [1] is 1.02 Ratio.

Take `CCN1CCC(O)(/C=C/c2ccc(C)cc2)C(C(=O)/C=C/c2ccc(C)cc2)C1.Cl` (stereo not drawn) [Compound 657298]: under setting [2], the “Int.* (Ratio) (Interference)” value is given as 1.01 Ratio. Under “MBHA with DNA substrate”, the “Inh. (%) (Inhibition)” value was −17.3%.

Consider `COc1ccccc1/C=C1\Sc2scc(-c3cccc([N+](=O)[O-])c3)[n+]2C1=O` [Compound 657446], for which, where the note is “MBHA with a DNA substrate”, the “Inh. (%) (Inhibition)” value was −21.5%. The “Int.* (Ratio) (Interference)” value under setting [1] is 1.00 Ratio.

On to `Cc1cc(O)c(/C=N/C(N)=S)c(=O)o1` [Compound 657449], for which the “Inh. (%) (Inhibition)” value (MBHA with a DNA substrate) is reported as −25.4%. Moreover, the “Int.* (Ratio) (Interference)” value under setting [1] is on record as 1.00 Ratio.

With `Oc1[nH]c2ccccc2c1N=Nc1nc(-c2ccc(Br)cc2)cs1` [Compound 657456], the “Inh. (%) (Inhibition)” value (MBHA with a DNA substrate) is −6.1%. Also, under setting [1], the “Int.* (Ratio) (Interference)” value is given as 0.85 Ratio.

As to `COc1cc(/C=C2\S/C(=N/Nc3nc(-c4ccc(Br)cc4)cs3)NC2=O)cc(OC)c1OC` [Compound 657457], the “Int.* (Ratio) (Interference)” value under setting [2] is on record as 1.06 Ratio. Also, under “MBHA with DNA substrate”, the “Inh. (%) (Inhibition)” value is recorded as −14.5%.

As for `O=C1/C(=C/c2ccc([N+](=O)[O-])cc2)Sc2scc(-c3cccc([N+](=O)[O-])c3)[n+]21.[Cl-]` [Compound 657598], under setting [2], the “Int.* (Ratio) (Interference)” value is 0.94 Ratio. In addition, the “Inh. (%) (Inhibition)” value (MBHA with DNA substrate) is given as −14.8%.

Take `CCCn1c(=O)c2ccccc2[n+]2c(-c3ccc([N+](=O)[O-])cc3)csc12.[Br-]` [Compound 657603]: the “Int.* (Ratio) (Interference)” value under setting [2] is 0.94 Ratio. Moreover, the “Inh. (%) (Inhibition)” value (MBHA with DNA substrate) is −15.1%.

Consider `Cc1cccc(C)c1NC(=O)C(=O)C(c1ccccc1Cl)S(=O)(=O)Cc1ccccc1Cl` (stereo not drawn) [Compound 657722], for which the “Inh. (%) (Inhibition)” value (MBHA with a DNA substrate) is 9.1%. In addition, the “Int.* (Ratio) (Interference)” value under setting [1] is listed as 0.93 Ratio.

For the compound `COc1ccc(CCN(C)CCCC(C#N)(c2ccc(OC)c(OC)c2)C(C)C)cc1OC.Cl` (stereo not drawn) [Compound 657799], under setting [2], the “Int.* (Ratio) (Interference)” value is recorded as 0.98 Ratio. For the same compound, the “Inh. (%) (Inhibition)” value (MBHA with DNA substrate) is on record as 5.8%.

On to `O=[N+]([O-])c1ccc2c(c1)/C(=N/N=C1c3ccccc3Cc3ccccc31)c1cc([N+](=O)[O-])cc([N+](=O)[O-])c1-2` [Compound 658139], for which the “Int.* (Ratio) (Interference)” value under setting [2] is 1.06 Ratio. Moreover, the “Inh. (%) (Inhibition)” value (MBHA with DNA substrate) is reported as −14.6%.

On to `O=C1C=C(N2CCNCC2)C(=O)c2c(O)ccc(O)c21` [Compound 658144], for which the “Inh. (%) (Inhibition)” value (MBHA with a DNA substrate) is reported as −5.5%. Also, the “Int.* (Ratio) (Interference)” value under setting [1] is recorded as 0.78 Ratio.

On to `CC(=O)c1sc2[n+](c1C)C(=O)/C(=C\c1ccccc1Cl)S2` [Compound 658285], for which the “Int.* (Ratio) (Interference)” value under setting [2] was 0.90 Ratio. For the same compound, for the setting “MBHA with DNA substrate”, the “Inh. (%) (Inhibition)” value was 3.1%.

For `CCOC(=O)c1sc2[n+](c1C)C(=O)/C(=C/c1ccc([N+](=O)[O-])cc1)S2.[Cl-]` [Compound 658293], under “MBHA with a DNA substrate”, the “Inh. (%) (Inhibition)” value is listed as −22.4%. Further, under setting [1], the “Int.* (Ratio) (Interference)” value is reported as 1.08 Ratio.

As to `CCn1c(O)c(C=Nc2ccccc2)s/c1=N/Nc1ncc(CC(=O)Nc2ccccc2C)s1` [Compound 658350], the “Int.* (Ratio) (Interference)” value under setting [2] is 1.00 Ratio. Where the note is “MBHA with DNA substrate”, the “Inh. (%) (Inhibition)” value is −18.3%.

With `CN(C)CCCCN1CCc2c(n(C)c3ccccc23)C1=O` [Compound 658388], under setting [2], the “Int.* (Ratio) (Interference)” value was 1.09 Ratio. Further, the “Inh. (%) (Inhibition)” value (MBHA with DNA substrate) was −18.7%.

As to `CC(=O)N=C1N(/C=C2\C(=O)Oc3ccccc3C2=O)C(=O)/C(=C/c2ccccc2Cl)N1C` [Compound 658494], under setting [2], the “Int.* (Ratio) (Interference)” value is on record as 0.95 Ratio. Where the note is “MBHA with DNA substrate”, the “Inh. (%) (Inhibition)” value was 6.7%.

On to `COc1ccc(NC(=O)C(=O)/C=C(\O)c2ccccc2)cc1` [Compound 658709], for which, under setting [2], the “Int.* (Ratio) (Interference)” value is 0.90 Ratio. The “Inh. (%) (Inhibition)” value (MBHA with DNA substrate) was −7.9%.

On to `O=C(CC(O)(C(F)(F)F)C(F)(F)Cl)CC(O)(C(F)(F)F)C(F)(F)Cl` (stereo not drawn) [Compound 659174], for which, for the setting “MBHA with a DNA substrate”, the “Inh. (%) (Inhibition)” value is recorded as 8.7%. Also, under setting [1], the “Int.* (Ratio) (Interference)” value is 0.92 Ratio.

On to `CN=c1sc2c(n1C)C(=O)c1ccccc1C2=O` [Compound 659501], for which the “Inh. (%) (Inhibition)” value (MBHA with a DNA substrate) is −6.6%. Further, under setting [1], the “Int.* (Ratio) (Interference)” value is recorded as 1.06 Ratio.

With `Cl.O=C1C=CC(=O)c2c(O)c(N3CCN(CCOCCO)CC3)c(Br)c(O)c21` [Compound 659999], under setting [2], the “Int.* (Ratio) (Interference)” value is 0.44 Ratio. In addition, under “MBHA with DNA substrate”, the “Inh. (%) (Inhibition)” value is reported as 6.1%.

As for `Cc1nn(-c2ccccc2)c2c1CC(=O)Nc1ccccc1-2` [Compound 662553], where the note is “MBHA with a DNA substrate”, the “Inh. (%) (Inhibition)” value is reported as −4.6%. Further, under setting [1], the “Int.* (Ratio) (Interference)” value was 1.02 Ratio.

For the compound `C=C(Cl)C(Cl)(CBr)CCC(Br)C(C)(C)Cl` (stereo not drawn) [Compound 662825], the “Int.* (Ratio) (Interference)” value under setting [2] is listed as 0.93 Ratio. For the same compound, the “Inh. (%) (Inhibition)” value (MBHA with DNA substrate) was 14.5%.

In the case of `COc1ccc(NC2=NCCO2)c2c1CCCC2` [Compound 663996], under setting [2], the “Int.* (Ratio) (Interference)” value is given as 1.08 Ratio. The “Inh. (%) (Inhibition)” value (MBHA with DNA substrate) is given as −2.7%.

Take `O=C1C(C(O)(C(F)(F)F)C(F)(F)F)CCC1C(O)(C(F)(F)F)C(F)(F)F` (stereo not drawn) [Compound 664181]: the “Int.* (Ratio) (Interference)” value under setting [2] was 0.84 Ratio. Further, the “Inh. (%) (Inhibition)” value (MBHA with DNA substrate) is 14.5%.

`CN(NC1=NCCO1)c1ccc2ccccc2c1` [Compound 664286]: the “Inh. (%) (Inhibition)” value (MBHA with a DNA substrate) is on record as −22.3%. For the same compound, the “Int.* (Ratio) (Interference)” value under setting [1] is recorded as 1.18 Ratio.

Take `CC(Cc1ccccc1)NC1=NCCO1` (stereo not drawn) [Compound 664298]: the “Inh. (%) (Inhibition)” value (MBHA with a DNA substrate) is 9.8%. Under setting [1], the “Int.* (Ratio) (Interference)” value was 0.96 Ratio.

`CC(=O)C(N1CCCCC1)C(O)(C(F)(F)F)C(F)(F)F` (stereo not drawn) [Compound 664327]: the “Int.* (Ratio) (Interference)” value under setting [2] is reported as 0.82 Ratio. Besides, the “Inh. (%) (Inhibition)” value (MBHA with DNA substrate) is 25.5%.

Take `O/N=C(\CC(O)(C(F)(F)F)C(F)(F)F)c1cccc(Cl)c1` [Compound 664329]: under setting [2], the “Int.* (Ratio) (Interference)” value is reported as 1.01 Ratio. Also, the “Inh. (%) (Inhibition)” value (MBHA with DNA substrate) was −14.5%.

With `CC1=CC(=O)c2cccc(NC3=NCCO3)c21` [Compound 664331], under setting [2], the “Int.* (Ratio) (Interference)” value is 1.03 Ratio. For the same compound, the “Inh. (%) (Inhibition)” value (MBHA with DNA substrate) is listed as −1.8%.

For `O=C1Cc2c([nH]c3ccc(Br)cc23)-c2ccccc2N1` [Compound 664704], the “Int.* (Ratio) (Interference)” value under setting [2] is reported as 0.98 Ratio. In addition, the “Inh. (%) (Inhibition)” value (MBHA with DNA substrate) is reported as −10.6%.

Regarding `CCCCCCC1CC(=O)C1(Cl)Cl` (stereo not drawn) [Compound 666526], the “Int.* (Ratio) (Interference)” value under setting [2] is 0.97 Ratio. Moreover, the “Inh. (%) (Inhibition)” value (MBHA with DNA substrate) is given as −1.3%.

Turning to `CCOC(=O)Cc1cc(=O)oc2cc(O)ccc12` [Compound 667235], the “Int.* (Ratio) (Interference)” value under setting [2] is 1.06 Ratio. Besides, the “Inh. (%) (Inhibition)” value (MBHA with DNA substrate) is on record as 12.3%.
